Data on 19 molecules can be found in ChEMBL document CHEMBL2040736, “Design of potent and selective hybrid inhibitors of the mitotic kinase Nek2: structure-activity relationship, structural biology, and cellular activity” (J Med Chem, 2012).

The target in series [1] is T1, Serine/threonine-protein kinase Nek2 (Homo sapiens, UniProt P51955).
T1 sequence (P51955 whole entry): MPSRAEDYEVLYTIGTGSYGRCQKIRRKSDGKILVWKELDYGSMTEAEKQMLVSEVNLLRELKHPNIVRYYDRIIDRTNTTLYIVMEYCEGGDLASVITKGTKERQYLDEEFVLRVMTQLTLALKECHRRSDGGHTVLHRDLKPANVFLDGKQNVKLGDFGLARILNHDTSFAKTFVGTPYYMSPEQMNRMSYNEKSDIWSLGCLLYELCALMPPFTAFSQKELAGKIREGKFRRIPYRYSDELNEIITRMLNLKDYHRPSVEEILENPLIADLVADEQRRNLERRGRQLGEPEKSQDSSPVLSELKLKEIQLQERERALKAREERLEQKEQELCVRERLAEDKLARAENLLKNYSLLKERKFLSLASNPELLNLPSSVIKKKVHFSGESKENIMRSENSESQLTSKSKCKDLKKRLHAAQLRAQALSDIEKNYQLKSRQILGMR

The subject of a further series is HeLa. Nature of the series: Growth inhibition of human HeLa cells after 92 hrs by CellTiter-Blue assay. The format is functional. Background: Resazurin is reduced to fluorescent resorufin, in cell work by metabolically active cells.
The test system of the next series is MCF7. Nature of the series: Growth inhibition of human MCF7 cells after 92 hrs by CellTiter-Blue assay. The format is functional. Particulars: MCF7, 92 h; call rule not given here.
Series [2] addresses T1, Serine/threonine-protein kinase Nek2. The note with it: u2os.
Description: Inhibition of Nek2-mediated C-Nap1 phosphorylation in human U2OS cells after 3 hrs by immunofluorescence microscopy
The subject of the next series is MDA-MB-231. Nature of the series: Growth inhibition of human MDA-MB-231 cells after 92 hrs by CellTiter-Blue assay. The format is functional. The note with it: MDA-MB-231, 92 h.
In another series the test system is U2OS. Nature of the series: Growth inhibition of human U2OS cells after 92 hrs by CellTiter-Blue assay. The class given is functional.
Series [3] addresses Serine/threonine-protein kinase PLK1 (Homo sapiens, UniProt P53350). Description: Inhibition of Plk1 using 5-FAMRRRAGALMDASFEEQ- CONH2 as substrate after 75 mins by caliper method.
Series [4] deals with Cyclin-dependent kinase 2 (Homo sapiens, UniProt P24941). Description: Inhibition of CDK2 by caliper method.
Series [5] has as its target T2, Dual specificity protein kinase TTK (Homo sapiens, UniProt P33981).
T2 sequence (P33981 whole entry): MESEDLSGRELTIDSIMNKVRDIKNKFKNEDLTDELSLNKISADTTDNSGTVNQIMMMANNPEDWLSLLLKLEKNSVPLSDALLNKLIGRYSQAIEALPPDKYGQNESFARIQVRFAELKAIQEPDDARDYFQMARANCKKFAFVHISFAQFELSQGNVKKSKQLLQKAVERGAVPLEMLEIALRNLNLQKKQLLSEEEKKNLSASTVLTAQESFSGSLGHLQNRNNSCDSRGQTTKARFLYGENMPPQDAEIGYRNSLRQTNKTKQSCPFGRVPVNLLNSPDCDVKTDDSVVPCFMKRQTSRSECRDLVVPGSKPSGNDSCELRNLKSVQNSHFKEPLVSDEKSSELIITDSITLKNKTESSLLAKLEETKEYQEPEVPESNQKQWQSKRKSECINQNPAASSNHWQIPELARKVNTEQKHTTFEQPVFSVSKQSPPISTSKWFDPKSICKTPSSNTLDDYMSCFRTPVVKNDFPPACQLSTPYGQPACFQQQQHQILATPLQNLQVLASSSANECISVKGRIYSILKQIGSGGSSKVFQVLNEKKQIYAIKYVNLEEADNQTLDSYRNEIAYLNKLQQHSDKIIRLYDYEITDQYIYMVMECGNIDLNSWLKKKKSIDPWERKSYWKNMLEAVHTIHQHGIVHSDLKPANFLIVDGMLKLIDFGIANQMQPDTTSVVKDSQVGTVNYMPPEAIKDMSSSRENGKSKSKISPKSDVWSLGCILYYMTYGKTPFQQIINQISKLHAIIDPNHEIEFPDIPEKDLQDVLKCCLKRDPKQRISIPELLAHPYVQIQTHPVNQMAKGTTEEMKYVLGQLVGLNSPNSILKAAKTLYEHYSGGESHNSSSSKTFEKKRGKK
Nature of the series: Inhibition of MPS1 by caliper method.

For the next series, the target named is T3, Aurora kinase A (Homo sapiens, UniProt O14965).
T3 sequence (O14965 whole entry): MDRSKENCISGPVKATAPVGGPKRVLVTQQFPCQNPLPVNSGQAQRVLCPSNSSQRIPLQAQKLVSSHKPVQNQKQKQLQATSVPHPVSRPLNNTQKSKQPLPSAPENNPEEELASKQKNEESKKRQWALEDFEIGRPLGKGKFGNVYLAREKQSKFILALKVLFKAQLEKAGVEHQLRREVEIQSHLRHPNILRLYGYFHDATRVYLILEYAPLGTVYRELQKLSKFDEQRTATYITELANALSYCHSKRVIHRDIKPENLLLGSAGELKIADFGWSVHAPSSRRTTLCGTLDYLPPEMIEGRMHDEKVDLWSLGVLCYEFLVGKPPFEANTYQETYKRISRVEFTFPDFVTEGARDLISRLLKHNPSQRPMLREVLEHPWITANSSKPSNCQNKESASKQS
Nature of the series: Inhibition of Aurora A kinase by caliper method.

A short description of series [6]: Drug metabolism in mouse liver microsomes after 30 mins. Particulars: read-out: Drug metabolism. The class given is ADME, Microsome. On the technique in general: Liver microsomes are vesicles of endoplasmic reticulum, rich in cytochrome P450 enzymes.
Series [7] in a line: Permeability of the compound by PAMPA assay. The format is ADME. (In general: The PAMPA barrier holds no transporters, so it reflects passive diffusion.)

Usually IC50 stands for the concentration at which inhibition is half-maximal. Read a low IC50 as greater potency in that assay. The term GI50 denotes the concentration that inhibits growth by half. A higher GI50 goes with lower sensitivity of the cells.

The structures appear in SMILES notation.

Chain of Serine/threonine-protein kinase PLK1 (P53350 whole entry): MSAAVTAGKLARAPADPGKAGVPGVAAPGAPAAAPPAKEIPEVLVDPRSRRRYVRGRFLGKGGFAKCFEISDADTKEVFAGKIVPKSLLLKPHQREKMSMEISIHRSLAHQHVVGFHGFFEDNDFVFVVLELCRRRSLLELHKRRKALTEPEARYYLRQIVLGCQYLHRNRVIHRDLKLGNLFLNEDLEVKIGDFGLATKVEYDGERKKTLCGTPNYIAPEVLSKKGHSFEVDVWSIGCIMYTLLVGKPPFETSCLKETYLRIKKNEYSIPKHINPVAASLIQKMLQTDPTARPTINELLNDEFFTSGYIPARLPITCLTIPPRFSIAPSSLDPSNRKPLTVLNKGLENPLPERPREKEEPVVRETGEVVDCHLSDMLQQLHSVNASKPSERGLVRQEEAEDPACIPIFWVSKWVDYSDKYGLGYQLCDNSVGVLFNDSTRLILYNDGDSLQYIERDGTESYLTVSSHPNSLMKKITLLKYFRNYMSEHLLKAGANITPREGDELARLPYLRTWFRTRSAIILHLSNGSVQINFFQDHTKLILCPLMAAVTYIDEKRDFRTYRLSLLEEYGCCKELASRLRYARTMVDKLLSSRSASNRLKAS

As to `COc1cc(-c2cc(-c3cccs3)cnc2N)ccc1C(N)=O`, the half-maximal inhibitory concentration (IC50) in series [1] came out at 10500 nM.
Take `Cc1cc(CN(C)C)sc1-c1cnc(N)c(-c2ccc(C(N)=O)c(OC(C)c3ccccc3C(F)(F)F)c2)c1` (racemic): the IC50 in [1] was 58 nM. Against the preceding molecule, the IC50 is about 180-fold lower.
In turn, `CC(Oc1cc(-c2cc(-c3ccc(CN4CCOCC4)s3)cnc2N)ccc1C(N)=O)c1ccccc1C(F)(F)F` (racemic) returned an IC50 in [1] of 318 nM.
With `CC(Oc1cc(-n2cnc3cc(OC4CCN(C)CC4)ccc32)ccc1C(N)=O)c1ccccc1C(F)(F)F` (racemic), the GI50 stood at 1200 nM with HeLa, 2030 nM in the series with MCF7, 4.95 µM with MDA-MB-231 and 2960 nM in the series on U2OS. Also, in series [2], the IC50 result is reported as “Not Active”.
Take `CC(Oc1cc(-c2cc(-c3ccc(CN(C)C)s3)cnc2N)ccc1C(N)=O)c1ccccc1C(F)(F)F` (racemic): the IC50 in [1] is 47 nM; in series [3], 0.5 µM.
On to `C[C@@H](/C=C\C(F)(F)F)Oc1cc(-c2cc(-c3cc(CN(C)C)cs3)cnc2N)ccc1C(N)=O`, for which the IC50 in series [1] was 1800 nM; in series [3], above 50 µM; in [2], “Not Active”; in [4] it was 530 nM; in series [5], 7.12 µM; against Aurora kinase A it was 2.33 µM. Besides, the GI50 in the series with HeLa turned out to be 440 nM; with MCF7 it was 5420 nM; in the series on MDA-MB-231, 7.25 µM; in the series with U2OS it was 2170 nM.
As to `CC(Oc1cc(-c2cc(-c3cccs3)cnc2N)ccc1C(N)=O)c1ccccc1C(F)(F)F` (racemic), in [1], the midpoint of inhibition, the IC50, lay at 9000 nM.
Same read-out and setting: under `COc1cc(-c2cc(-c3cc(CN(C)C)cs3)cnc2N)ccc1C(N)=O` stands 2260 nM; under `Cc1cc(-c2cnc(N)c(-c3ccc(C(N)=O)c(OC(C)c4ccccc4C(F)(F)F)c3)c2)sc1CN(C)C` (racemic), 47 nM.
On to `CC(Oc1cc(-c2cc(-c3cc(CN(C)C)cs3)cnc2N)ccc1C(N)=O)c1ccccc1C(F)(F)F` (racemic), for which it took 1.32 µM to reach half-maximal inhibition in series [3] (IC50). In addition, the metabolised at 0.5 h in series [6] was 87%.
As for `C[C@@H](Oc1cc(-c2cc(-c3cc(CN(C)C)cs3)cnc2N)ccc1C(N)=O)c1ccccc1C(F)(F)F`, the GI50 in the series on HeLa is 140 nM; in the series with MCF7, 220 nM; in the series with MDA-MB-231, 0.95 µM; in the series on U2OS, 480 nM. In addition, the IC50 in series [3] worked out at 0.82 µM; in series [4], 26600 nM; in series [5], 4.81 µM; against Aurora kinase A, 8.81 µM.
On to `CC(Oc1cc(-c2nc(-c3cccc(CN(C)C)c3)cnc2N)ccc1C(N)=O)c1ccccc1C(F)(F)F` (racemic), for which the results for the IC50 in series [1] and in [3] were 2470 nM and 12.1 µM, respectively.
`CC(Oc1cc(-c2nc(-c3cc(CN(C)C)cs3)cnc2N)ccc1C(N)=O)c1ccccc1C(F)(F)F` (racemic): the IC50 in [1] was found to be 2630 nM.
In the case of `CC(/C=C\C(F)(F)F)Oc1cc(-c2cc(-c3cc(CN(C)C)cs3)cnc2N)ccc1C(N)=O` (racemic), the IC50 in [1] was 73 nM; in series [3], 8.41 µM. In series [7], the permeability came out at 27.6 ×10⁻⁶ cm/s. Besides, the metabolised at 0.5 h in [6] turned out to be 95%.
Molecule `CC(Oc1cc(-c2nc(-c3ccc(CN(C)C)s3)cnc2N)ccc1C(N)=O)c1ccccc1C(F)(F)F` (racemic) had an IC50 in series [1] of 2680 nM.
On to `CC(Oc1cc(-c2cc(-c3cccc(CN(C)C)c3)cnc2N)ccc1C(N)=O)c1ccccc1C(F)(F)F` (racemic), for which the IC50 in series [1] is 210 nM; in series [3], 3.29 µM.
On to `CC(Oc1cc(-c2nc(-c3ccc(CN(C)C)cc3)cnc2N)ccc1C(N)=O)c1ccccc1C(F)(F)F` (racemic), for which the IC50 in series [1] was determined as 790 nM; in series [3], 3.9 µM.
Consider `CC(Oc1cc(-c2cc(-c3ccc(CN4CCCCC4)s3)cnc2N)ccc1C(N)=O)c1ccccc1C(F)(F)F` (racemic), for which 93 nM corresponded to half-maximal inhibition in series [1] (IC50). This lies in the double-digit nanomolar range.
Regarding `CC(Oc1cc(-c2cc(-c3ccc(CN(C)C)cc3)cnc2N)ccc1C(N)=O)c1ccccc1C(F)(F)F` (racemic), the IC50 in series [1] came to 120 nM; in series [3], 1.56 µM; in series [4], 2740 nM; in series [5] it was 3.06 µM; on Aurora kinase A, 7.93 µM.
